# Reference: US6964763B1, “Methods and compositions for inhibiting HIV infectivity and blocking chemokine activity” (priority 1997, dated 2005)
# Where a SMILES comes first, the peptide text is derived from it.
# How the values were obtained:
# [1] = target: T1, gp120 (LAI isolate) (Human immunodeficiency virus type 1 group M subtype B, UniProt P03377); format: binding, HIV-1
# T1 construct: baculovirus-expressed HIV-1 gp120 derived from LAV and MN isolates; host or cells: baculovirus expression system
# Method: Increasing concentrations of soluble ^125I-labeled recombinant gp120LAV (nM -1μM) were incubated with immobilized ligand for 2 hours at 37° C., and bound radioactivity measured as in FIGS. 2A and 2B. […] This plot represents a single data set of triplicate samples (72=2, errors as SD).
# Briefly, TSP1 (5-10 μg/ml) or fusion proteins and peptides (10-20 μg/ml) were immobilized on detachable 96-well microtiter plate strips (Immulon-4 Remov-a-well, Dynatech Laboratories, Inc.), by overnight incubation at 4° C. in carbonate buffer (100 mM Na2CO3/1 mM MgCl2/0.02% NaN3, pH 9.8). Washed wells were blocked with 0.5% bovine serum albumin (“BSA”), then incubated in triplicate with soluble radiolabeled ligand for 2.5 hours at 37° C. After extensive washing in 50 mM Tris pH 7.5, 150 mM NaCl, 0.5% Tween-20 (TBS-Tween), bound radioactivity was quantified by gamma counter. […] Specific activity of Na[^125I] was determined for each experiment, ranging from 0.06-1.0 μCi/μg. Specific binding was determined as quenchable in the presence of excess unlabeled ligand, above background binding to BSA-coated wells.
# The gp120 envelope protein was tested to determine whether it shared this same specificity.
# [2] = system: CD4-gp120 complex formation; assay: Competitive inhibition of 125I-CD4 binding to immobilized gp120; parameters: species or system HIV-1 (MN and LAI isolates); conditions: 10-fold molar excess (0.5 μM) competitor, 50 nM 125I-CD4, MN and LAI gp120
# Method: FIG. 5 is a graph showing competitive inhibition of ^125I-CD4 binding to gp120. […] Samples were incubated, and bound TSP1 was measured as in FIG. 2. A single data set of triplicate samples (η=3, error as SD) is shown.
# (§1) Radiolabeling was performed with Na[^125I]
# These observations support a role for salivary TSP1 as a direct inhibitor of HIV infectivity.
# [3] = target: T2, CD4 (Homo sapiens, UniProt P01730); assay: Solid phase binding of 125I-CD4 to immobilized TSP1 and TSP analog
# T2 construct: CHO cell-expressed soluble CD4; host or cells: CHO cells
# Method: FIG. 12 is a graph showing the binding of ^125I-CD4 to TSP1 and a TSP analog. Increasing concentrations of soluble ^125I-labeled CD4 (0.1μM -1.0 μM) were added to immobilized TSP1, CVSTCG polypeptide (SEQ. ID. No. 1). Samples were incubated and bound ^125I-labeled CD4 measured by solid-binding radio-amino assay, […].
# as §1
# [4] = system: monocytotropic strains of HIV-1, p13 and HA593; assay: HIV-1 infectivity assay with monocytotropic patient isolates; format: cell-based; conditions: 100 μg/ml TSP1, viral moi 0.8
# [5] = target: recombinant HIV-1 gp160 (gp120 non-covalently linked to gp41) (Human immunodeficiency virus type 1 group M subtype B, UniProt P03375)
# Method: Increasing concentrations of soluble ^125I-labeled TSP1 (1 nM-μM) were added to immobilized recombinant HIV-1 gp160 for 3 hours at 22° C., and bound TSP1 measured after extensive washing. Non-linear curve fit was generated with Excell™ version 5.0. Apparent affinity was estimated from Scatchard analysis. (n=2; error calculated as standard deviation, SD).
# A fixed concentration of ^125I-labeled TSP 1(50 nM) was added to immobilized rgp 160 in the absence or presence of 10-fold molar excess (0.5 μM) unlabeled TSP1, fusion protein LFP75-155 containing the LIMPII TSP binding domain (aa 75-155), or downstream fusion protein LFP 156-243. Samples were incubated, and bound TSP 1 was measured as in FIG. 2A. Plots represent single data sets of triplicate samples. (n=3, error as SD).
# Briefly, TSP1 (5-10 μg/ml) or fusion proteins and peptides (10-20 μg/ml) were immobilized on detachable 96-well microtiter plate strips (Immulon-4 Remov-a-well, Dynatech Laboratories, Inc.), by overnight incubation at 4° C. in carbonate buffer (100 mM Na2CO3/1 mM MgCl2/0.02% NaN3, pH 9.8). Washed wells were blocked with 0.5% bovine serum albumin (“BSA”), then incubated in triplicate with soluble radiolabeled ligand for 2.5 hours at 37° C. After extensive washing in 50 mM Tris pH 7.5, 150 mM NaCl, 0.5% Tween-20 (TBS-Tween), bound radioactivity was quantified by gamma counter. Radiolabeling was performed with Na[^125I] […] Specific activity of Na[^125I] was determined for each experiment, ranging from 0.06-1.0 μCi/μg. Specific binding was determined as quenchable in the presence of excess unlabeled ligand, above background binding to BSA-coated wells.
# [6] = system: HIV-1 isolate IIIB; assay: HIV-1 infectivity assay, virus pre-incubated with TSP1 or saliva, p24 ELISA day 7; format: cell-based
# Method: HIV-1 isolate IIIB was pre-incubated in the absence of TSP1, or with various concentrations of purified TSP1 for 1 hour at 37° C. Pre-incubated virus-TSP1 mixtures were added to target cells either directly (−), or first passed through 0.2 μm filters (+). Phorbol myrisate acetate (“PMA”) activated primary peripheral blood mononuclear cells (“PBMC”), SK23 (T-cell line) or U937 (promonocytic line) were inoculated with the multiplicities of infection (“moi”) indicated. After an additional 1 hour at 37° C., infected cells were washed, cultured for 7 days, and HIV-1 p24 antigen measured by ELISA. Inhibition is expressed for a single data set as percent of maximum p24 detected in the absence of TSP1.
# PMA-stimulated primary PBMC were infected with 0.02 moi HIV/IIIB that had been pre-incubated with TSP1 alone, or with LIMPII fusion protein LFP75-155 alone or in the presence of TSP1, and filtered prior to incubation as in FIG. 7. TSP-mediated inhibition is expressed as percent decrease in p24 relative to maximum p24 detected in the absence of TSP 1. Data shown represent the average of two independent experiments (error as SD).
# CD4+T lymphoblastoid (SK23, Jurkat) and promonocytic (U937) cell lines, or peripheral blood mononuclear cells (“PBMC”) obtained from HIV seronegative donors and activated with phytohemagglutinin (“PHA”, 2 μg/ml for 72 hours), were cultured in RPMI 1640, 5% fetal bovine serum (“FBS”, frozen/thawed and complement-inactivated 30 minutes at 56° C.), 100 U/ml penicillin and 100 μg/ml streptomycin (GIBCO/BRL, Grand Island, N.Y.). PBMC medium also contained 32 U/ml interleukin-2 (Sigma Chemical Co., St. Louis, Mo.). FBS samples were pre-screened to assure that levels of TSP were<10 μg/ml. Acute HIV infection was performed using HIV-1 isolate IIIB stock virus as previously described (Laurence et al., “Human Immunodeficiency Virus Infection of Helper T-Cell Clones: Early Proliferative Defects Despite Intact Antigen-Specific Recognition and Interleukin 4 Secretion,” J. Clin. Invest., 83:1843-1848 (1989); Laurence et al., “Human Immunodeficiency Virus Infection of Monocytes: Relationship to Fc-Gamma Receptors and Antibody-Dependent Viral Enhancement,” Immunology, 70:338-343 (I 990), which are hereby incorporated by reference). Briefly, 2.5×10^5 target cells were exposed to stock virus at a moi of either 0.02 or 0.15 for 2 hours at 37° C., washed once with PBS, and re-plated in tissue culture-treated microwells with 0.3 ml fresh culture medium. At 3-4 days post-inoculation, one half of culture supernatant from each well was replaced with fresh medium. HIV activity was determined after 7 days using an ELISA antigen capture assay for HIV-1 p24 (gag) core protein (Dupont Medical Products, Boston, Mass.) of Triton X-100 solubilized culture supernatants.
# • 100 μl of HIV-1/IIIB inocula were mixed with 100 μl of various concentrations of whole saliva, salivary fluid fractions, or purified platelet TSP1 diluted in serum-free cell culture medium, and pre-incubated for 2 hours at 37° C. Then, 10-fold serial dilutions were added directly to target cell cultures for assay of infectivity. In some experiments, pre-incubated virus-saliva/TSP mixtures were filtered through 0.2 μm nitrocellulose syringe filters (Gelman Sciences, Ann Arbor, Mich.) prior to inoculation of target cells. Salivary TSP1 Depletion Experiments
# [7] = system: CD4 surface expression; assay: Cell surface expression of CD4 by flow cytometry; format: cell-based, human; conditions: 100 μg/ml TSP1, 3 days; Jurkat, SK23, PHA-activated PBMC
# Method: CD4 surface expression on HIV-1 infected or uninfected U937 cells was evaluated by indirect immunofluorescence flow cytometry using anti-CD4 mAb Leu3, as detailed elsewhere (Laurence et al., “Human Immunodeficiency Virus Infection of Helper T-Cell Clones: Early Proliferative Defects Despite Intact Antigen-Specific Recognition and Interleukin 4 Secretion,” J. Clin. Invest., 83:1843-1848 (1989), which is hereby incorporated by reference).
# Another mechanism to explain TSP-mediated blockade to HIV infection would be a direct effect on target cells, whereby alterations in cell function would decreased the capacity to support productive infection. To address whether exogenous purified TSP1 induced down-modulation of the high affinity HIV receptor, CD4+ Jurkat and SK23 T-cell lines, as well as PHA-activated PBMC, were monitored for differences in CD4 surface expression after culture for 3 days in the absence or presence of 100 μg/ml TSP1. By flow cytometric analysis of cells stained with fluorescein-conjugated anti-CD4 IgG, no change in relative fluorescence intensity or percent CD4+cell was detected.
# [8] = target: T3, RANTES (Homo sapiens, UniProt P13501); assay: Solid phase binding of 125I-RANTES to immobilized TSP
# T3 sequence (P13501 24-91): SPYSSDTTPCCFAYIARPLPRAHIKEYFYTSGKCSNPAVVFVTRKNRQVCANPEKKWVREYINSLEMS
# Method: FIG. 9 is a graph showing the binding of ^125I-RANTES to TSP1. Increasing concentrations of soluble ^125I-labeled RANTES (0.01 μM -10.0 μM) were added to immobilized TSP1. Samples were incubated and bound ^125I-labeled RANTES measured by solid-binding radio-amino assay.
# FIG. 10 is a graph showing the Hanes analysis of “^125-RANTES binding to immobilized TSP1. The Hanes analysis provides a measure of assessing the possibility of binding one or more factors to a given molecule.
# as §1
# In solid phase assays, ^125I-RANTES binded to immobilized TSP. […] Estimated stoichiometry at equilibrium was low (˜0.5 RANTES molecule for every 10 TSP monomer), although the steep slope of the second phase indicated a cooperative interaction (Hanes plot, FIG. 10). One interpretation of the data is that RANTES homodimerization is favored over binding to TSP. At a concentration that shifts equilibrium toward formation of the heterologous complex, positive cooperativity likely reflects a higher apparent affinity of RANTES monomers for binding to TSP, with an increase in monomers being a function of the odd number of sites presented by TSP homotrimers.
compound,measurement,setting,value
"VGSCCT [scrambled control peptide, reference compound]",binding of 125I-gp120 to immobilized peptide (in words),[1],inefficient binding
same,inhibition of 125I-CD4 binding to immobilized gp120,[2],enhanced binding
"CC(C)[C@H](NC(=O)[C@H](CO)NC(=O)[C@@H](N)CS)C(=O)N[C@H](C(=O)N[C@@H](CS)C(=O)NCC(=O)O)[C@@H](C)O [CSVTCG, cys-ser-val-thr-cys-gly] (H-CSVTCG-OH; N-terminus and C-terminus assumed)",inhibition of 125I-CD4 binding to immobilized gp120,[2],53±9%
same,binding of 125I-CD4 to immobilized ligand (in words),[3],binded directly
thrombospondin-1 [TSP1],"inhibition of HIV infectivity, strains p13 and HA593",[4],≥ 98±1%
same,inhibition of 125I-CD4 binding to immobilized gp120,[2],complete inhibition
same,inhibition of 125I-TSP1 binding to gp160,"[5]; 10-fold molar excess (0.5 μM) unlabeled competitor, 50 nM 125I-TSP1",94±6%
same,Kd,"[5]; read-out: apparent affinity of TSP1 binding to immobilized recombinant gp160, soluble 125I-TSP1, Scatchard analysis",~250 nM
same,binding of 125I-CD4 to immobilized ligand (in words),[3],concentration dependent saturatable manner
same,reduction of HIV-1 infection of PHA-activated donor PBMC (p24),"[6]; 2-10 μg/ml TSP1, pre-filtered",> 83%
same,reduction of HIV-1 infectivity after brief exposure,"[6]; 5 minutes exposure of TSP-virion mixture, 1 μg/ml TSP1",> 50%
same,"inhibition of HIV-1 IIIB infection, SK23",[6]; SK23 CD4+ T-lymphoblastoid cell line,≥ 90.7%
same,"inhibition of HIV-1 IIIB infection, U937",[6]; U937 monocytoid cell line,≥ 83.0%
same,inhibition of HIV-1 on direct addition of TSP1,"[6]; no filtration, only with high concentration of TSP1 and low moi inoculum",50-75%
same,change in relative fluorescence intensity or percent CD4+ cells,[7],no change
same,estimated stoichiometry at equilibrium,[8],~0.5 RANTES molecule for every 10 TSP monomer
same,Kd,"[8]; saturatable, biphasic higher order kinetics, read-out: half maximal binding of 125I-RANTES to immobilized TSP",~330 nM
GRGDS (GRGDA) [reference compound],binding of 125I-gp120 to immobilized peptide (in words),[1],inefficient binding
same,inhibition of 125I-CD4 binding to immobilized gp120,[2],4±4%
fibrinogen [reference compound],effect on HIV-1 infection of PBMC (in words),"[6]; same system as TSP1, pre-filtered",no effect
